# In the supplement of paper PMC11061612:
# Legend:
# [1] = tested on: SW620 (Colorectal Carcinoma); assay: Bliss excess, mean over the matrix (fraction); higher = more synergy
# Procedure, shortened: (§1)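 Cell lines in DMEM/F12 or RPMI with 10% FBS were plated in 1536-well plates, held 24 hours at 37°C, 5% CO2, then given two-drug dose matrices for 72 hours (DMSO typically 0.2%). Viability was read by CellTiter-Glo 2.0 luminescence and scaled as inhibition from 0 (vehicle wells) to 1 (blank wells). Combination Emax is the second-highest inhibition in the matrix; Bliss excess is observed combination effect minus expected EA + EB − EA·EB, EA and EB being single-agent effects.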
# [2] = tested on: MHH-ES-1 (Ewing's Sarcoma); assay: as above
# Procedure, shortened: as §1
# [3] = tested on: NCI-H1703 (Squamous Cell Lung Carcinoma); assay: combination Emax (second highest fraction inhibited in the dose matrix, 72 h); higher = more inhibition; extreme values may be limits of the assay
# Procedure, shortened: as §1
# PEO1 (Ovarian Carcinoma) [4] = assay: as above
# Procedure, shortened: as §1
# [5] = tested on: NCI-H441 (Lung Adenocarcinoma); assay: as above
# Procedure, shortened: as §1
# [6] = tested on: HCC1395 (Breast Carcinoma); assay: Bliss excess, mean over the matrix (fraction); higher = more synergy
# Procedure, shortened: as §1
# WM1552C (Melanoma) = assay: as above
# Procedure, shortened: as §1
# [7] = tested on: CGTH-W-1 (Thyroid Gland Carcinoma); assay: as above
# Procedure, shortened: as §1
# [8] = tested on: MDA-MB-436 (Breast Carcinoma); assay: as above
# Procedure, shortened: as §1
# [9] = tested on: LU-165 (Small Cell Lung Carcinoma); assay: as above
# Procedure, shortened: as §1
# [10] = tested on: NCI-H1651 (Lung Adenocarcinoma); assay: as above
# Procedure, shortened: as §1
# [11] = tested on: UACC-812 (Breast Carcinoma); assay: as above
# Procedure, shortened: as §1
# [12] = tested on: SK-HEP-1 (Hepatocellular Carcinoma); assay: as above
# Procedure, shortened: as §1
# [13] = tested on: JHU-022 (Oral Cavity Carcinoma); assay: as above
# Procedure, shortened: as §1
# [14] = tested on: A2780 (Ovarian Carcinoma); assay: as above
# Procedure, shortened: as §1
# HCC70 (Breast Carcinoma) = assay: as above
# Procedure, shortened: as §1
# [15] = tested on: 22RV1 (Prostate Carcinoma); assay: as above
# Procedure, shortened: as §1
# [16] = tested on: NCI-H2087 (Lung Adenocarcinoma); assay: as above
# Procedure, shortened: as §1
# PEO1 (Ovarian Carcinoma) [17] = assay: as above
# Procedure, shortened: as §1
# [18] = tested on: NCI-H441 (Lung Adenocarcinoma); assay: as above
# Procedure, shortened: as §1
# 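Wherever Bliss excess, mean over the matrix is given: after 72 h of two-drug dosing.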
SMILES,Bliss excess [1],Bliss excess [2],combination Emax [3],combination Emax (PEO1 (Ovarian Carcinoma) [4]),combination Emax [5],Bliss excess [6],Bliss excess (WM1552C (Melanoma)),Bliss excess [7],Bliss excess [8],Bliss excess [9],Bliss excess [10],Bliss excess [11],Bliss excess [12],Bliss excess [13],Bliss excess [14],Bliss excess (HCC70 (Breast Carcinoma)),Bliss excess [15],Bliss excess [16],Bliss excess (PEO1 (Ovarian Carcinoma) [17]),Bliss excess [18]
"C[C@@H](c1ccc2nccn2c1)n1nnc2ncc(-c3cnn(C)c3)nc21 [Savolitinib] + CN(CC[C@H](CSC1=CC=CC=C1)NC2=C(C=C(C=C2)S(=O)(=O)NC(=O)C3=CC=C(C=C3)N4CCC(CC4)[C@H](C5=CC=CC=C5C6=CC=C(C=C6)Cl)O)S(=O)(=O)C(F)(F)F)CCO [AZD4320] (first compound max 1 µM, 7x7, partner max 1 µM)",-0.0642,-0.0154,–,–,–,–,–,–,–,–,–,–,–,–,–,–,–,–,–,–
"Cc1cc2ncnn2cc1Nc1ncc2c(n1)n(C1CCOCC1)c(=O)n2C [AZD7648] + O=C(c1cc(Cc2n[nH]c(=O)c3ccccc23)ccc1F)N1CCN(C(=O)C2CC2)CC1 [Olaparib] (first compound max 10 µM, 7x7, partner max 10 µM)",-0.0305,-0.0218,0.417,0.153,0.163,-0.0871,-0.0418,-0.0412,-0.0522,-0.102,-0.0356,-0.0119,-0.0428,-0.0682,-0.0213,-0.0292,-0.0832,-0.0207,-0.0374,-0.0555
"N#Cc1cnc(Nc2cc(NC[C@H]3CNCCO3)c(C(F)(F)F)cn2)cn1 [SRA737] + C=CCn1c(=O)c2cnc(Nc3ccc(N4CCN(C)CC4)cc3)nc2n1-c1cccc(C(C)(C)O)n1 [AZD1775] (first compound max 10 µM, partner max 1 µM)",-0.0272,0.0231,0.972,0.48,0.446,0.0559,-0.0052,-0.0074,-0.0132,0.0319,0.0846,0.0343,-0.0452,-0.0533,0.097,0.0276,0.0367,0.0238,-0.0117,-0.0403
"CN(CCO)CC[C@H](CSc1ccccc1)Nc1ccc(S(=O)(=O)NC(=O)c2ccc(N3CCC([C@@H](O)c4ccccc4-c4ccc(Cl)cc4)CC3)cc2)cc1S(=O)(=O)C(F)(F)F [AZD4320] + C1CN(CCC1(C(=O)N[C@@H](CCO)C2=CC=C(C=C2)Cl)N)C3=NC=NC4=C3C=CN4 [Capivasertib] (first compound max 1 µM, 7x7, partner max 3 µM)",-0.0498,-0.0261,0.402,0.432,0.173,-0.0479,-0.0419,-0.0436,-0.0329,-0.042,-0.0005,-0.0135,-0.0545,-0.0491,-0.0734,0.0327,-0.0486,-0.0696,-0.0691,-0.0503
"CN(CCO)CC[C@H](CSc1ccccc1)Nc1ccc(S(=O)(=O)NC(=O)c2ccc(N3CCC([C@@H](O)c4ccccc4-c4ccc(Cl)cc4)CC3)cc2)cc1S(=O)(=O)C(F)(F)F [AZD4320] + Cn1cnc2c(F)c(Nc3ccc(Br)cc3Cl)c(C(=O)NOCCO)cc21 [Selumetinib] (first compound max 1 µM, 7x7, partner max 3 µM)",0.032,-0.0124,0.298,0.582,0.522,0.012,0.0035,0.0043,-0.0388,-0.0155,0.0238,0.0065,0.0008,0.0374,0.0111,0.152,0.136,0.0142,-0.0044,0.0193
"COc1nnc2ccc(N3CCC(c4ccc(OCCN5CCN(C)C(=O)[C@H]5C)cc4)CC3)nn12 [AZD5153] + CN(CC[C@H](CSC1=CC=CC=C1)NC2=C(C=C(C=C2)S(=O)(=O)NC(=O)C3=CC=C(C=C3)N4CCC(CC4)[C@H](C5=CC=CC=C5C6=CC=C(C=C6)Cl)O)S(=O)(=O)C(F)(F)F)CCO [AZD4320] (first compound max 1 µM, 7x7, partner max 1 µM)",0.036,0.0258,–,–,–,–,–,–,–,–,–,–,–,–,–,–,–,–,–,–
"COc1cc2ncnc(Nc3ccc(F)c(Cl)c3)c2cc1OCCCN1CCOCC1 [Gefitinib] + CC(C)n1c(=O)n(C)c2cnc3cc(F)c(-c4ccc(OCCCN5CCCCC5)nc4)cc3c21 [AZD1390] (first compound max 10 µM, 7x7, partner max 0.3 µM)",-0.0762,-0.0611,0.305,0.175,0.271,-0.0265,-0.0589,-0.0417,-0.0402,-0.0477,-0.0554,-0.0549,0.0092,-0.053,-0.0704,-0.0536,-0.079,-0.135,-0.0346,-0.047
"Cc1cc2ncnn2cc1Nc1ncc2c(n1)n(C1CCOCC1)c(=O)n2C [AZD7648] + C[C@@H]1COCCN1C2=NC(=NC(=C2)C3(CC3)[S@](=N)(=O)C)C4=C5C=CNC5=NC=C4 [AZD6738] (first compound max 10 µM, 7x7, partner max 10 µM)",0.0264,0.0275,0.901,0.482,0.478,0.0361,0.0143,0.0191,0.0316,0.0351,0.0217,0.0254,0.0239,0.0105,0.0061,-0.0058,-0.0179,0.0177,-0.0121,0.0095
"CN(CCO)CC[C@H](CSc1ccccc1)Nc1ccc(S(=O)(=O)NC(=O)c2ccc(N3CCC([C@@H](O)c4ccccc4-c4ccc(Cl)cc4)CC3)cc2)cc1S(=O)(=O)C(F)(F)F [AZD4320] + CCN(CCO)CCCOc1ccc2c(Nc3cc(CC(=O)Nc4cccc(F)c4)[nH]n3)ncnc2c1 [AZD2811] (first compound max 1 µM, 7x7, partner max 1 µM)",0.0931,0.14,0.473,0.454,0.202,0.0121,-0.0152,–,-0.0619,-0.0081,-0.0013,-0.0194,0.0932,-0.0183,-0.0048,0.0345,-0.0342,0.0018,-0.0249,-0.0407
"CN(CCO)CC[C@H](CSc1ccccc1)Nc1ccc(S(=O)(=O)NC(=O)c2ccc(N3CCC([C@@H](O)c4ccccc4-c4ccc(Cl)cc4)CC3)cc2)cc1S(=O)(=O)C(F)(F)F [AZD4320] + C[C@@H]1COCCN1C2=NC(=NC(=C2)C3(CC3)[S@](=N)(=O)C)C4=C5C=CNC5=NC=C4 [AZD6738] (first compound max 1 µM, 7x7, partner max 10 µM)",-0.0151,0.0133,0.892,0.686,0.69,0.0007,-0.0969,-0.0342,-0.0121,-0.0344,0.0261,-0.0348,-0.0723,-0.0035,-0.0402,-0.0318,-0.133,0.0149,0.0134,-0.048
"CC(=O)c1c(C)c2cnc(Nc3ccc(N4CCNCC4)cn3)nc2n(C2CCCC2)c1=O [Palbociclib] + CN(CC[C@H](CSC1=CC=CC=C1)NC2=C(C=C(C=C2)S(=O)(=O)NC(=O)C3=CC=C(C=C3)N4CCC(CC4)[C@H](C5=CC=CC=C5C6=CC=C(C=C6)Cl)O)S(=O)(=O)C(F)(F)F)CCO [AZD4320] (first compound max 10 µM, 7x7, partner max 1 µM)",-0.0622,0.0028,–,–,–,–,–,–,–,–,–,–,–,–,–,–,–,–,–,–
"N#Cc1cnc(Nc2cc(NC[C@H]3CNCCO3)c(C(F)(F)F)cn2)cn1 [SRA737] + Nc1ccn([C@@H]2O[C@H](CO)[C@@H](O)C2(F)F)c(=O)n1 [Gemcitabine] (first compound max 10 µM, 7x7, partner max 0.3 µM)",0.058,0.0613,0.952,0.728,0.58,0.0226,-0.0206,0.0472,-0.0067,-0.0375,0.0124,-0.054,-0.0002,0.008,0.0099,–,-0.0663,0.0059,0.113,-0.0336
"Cc1nc(Nc2ncc(C(=O)Nc3c(C)cccc3Cl)s2)cc(N2CCN(CCO)CC2)n1 [Dasatinib] + CC(=O)Nc1cccc(-n2c(=O)n(C3CC3)c(=O)c3c(Nc4ccc(I)cc4F)n(C)c(=O)c(C)c32)c1 [Trametinib] (first compound max 2 µM, 7x7, partner max 1 µM)",-0.0107,-0.0487,0.782,0.492,0.442,-0.0332,0.0003,-0.0129,-0.044,-0.04,-0.042,–,-0.0294,-0.0483,0.029,-0.0217,-0.0578,-0.0024,-0.0433,0.024
